One assay relates to mammalian DT diaphorases. The following applies: cited from earlier work.
The target in another assay is wild type nitroreductase (Escherichia coli, UniProt P38489). Particulars: CB1954 as substrate, reference 9, cited from earlier work.
The subject of assay [1] is nitroreductase-expressing tumours. Particulars: mice harbouring nitroreductase-expressing tumours; McNeish et al., 1998; cited from earlier work.
Assay [2] deals with colorectal, pancreatic and ovarian tumour cell lines. Particulars: retroviral transfer of nitroreductase expression cassette; McNeish et al., 1998; Green et al., 1996; cited from earlier work.
Assay [3] deals with E.coli C600Hfl lysogens of λJG3J1 and λJG16C1. Kind of assay: Induction of phage release from 5:1 mixture of lysogens JG3J1 (control) and JG16C1 (ntr) by CB1954. It counts as cell-based. Particulars: for #### (Control phage in the section above) / No. cols / Phage particles / No. ntr phage (colonies containing λJG16C1 of colonies screened by PCR): 500 μM CB1954. On the procedure: E.coli C600Hfl (obtained from Promega Cat No. D3131) were infected with λJG3J1 or λJG16C1 for 15min at 37 °C and spread onto kanamycin (30µg/ml) selective Lennox agar (LA) plates to select for lysogens. A single colony of each was picked, and the lysogenic bacteria were then grown aerobically at 37 °C to mid log phase in LB containing 0.1mM IPTG. Approximately 4.8 x 10^8 λJG3J1 lysogens and 9 x 10^7 λ JG16C1 lysogens (as estimated from the optical density; approximate 5:1 ratio without:with nitroreductase) were mixed in 5ml LB containing 0.1mM IPTG in the presence or absence of 500 µM CB1954 (provided by Cobra Therapeutics and diluted from a 50mM stock solution in 2:7 N-methyl pyrrolidinone:PEG300). The mixtures of bacterial lysogens were incubated at 37 °C with shaking and 50µl samples removed at intervals between 15 and 185 minutes after mixing.
Each sample was immediately mixed with 1ml LB and 100µl chloroform to kill any bacteria, briefly centrifuged to pellet debris, and the supernatant diluted 1 in 10 before using 10 µl to infect E. coli C600Hfl and plating onto LA containing kanamycin, to select for bacteria lysogenised by bacteriophage in the sample.
The number of colonies growing from the samples was counted the following day, and indicates the total number of bacteriophage present in the sample.
The polymerase chain reaction (PCR) was used to determine whether the bacteria in each colony contained λJG3J1 or λJG16C1. A number of individual colonies were picked at random from the most relevant plates and transferred to a 200µl PCR tube, lysed in a microwave for 2min and 35µl of PCR reaction mix [16mM (NH4)2SO4, 67mM Tris-Cl (pH 8.8 at 25 °C), 0.01% Tween-20 (Bioline), 0.2mM each dNTP, 1.5mM MgCl2, 1 U Biotaq (Bioline)] plus 0.25 µM primersJ
A tube containing reaction mix but no bacteria was used as a control to check for contamination of PCR reaction components. After 30 cycles (94 °C/5min; then 30x 94 °C/45s, 55 °C/45s, 72 °C/160s; then 72 °C/10min) the PCR products were analysed by gel electrophoresis to determine the product size. Lysogens containing λJG16C1 expressing ntr gave a 1.1kb product whereas λJG3J1 lysogens gave a 0.4kb product. All the colonies gave one or the other of these two bands but not both, and the negative control confirmed the absence of contamination in the PCR.

Where [4] appears, read: 15 min after mixing & induction.
Setting [5] is: 30 min after mixing & induction.
The mark [6] stands for this setting: 45 min after mixing & induction.
[7] abbreviates: 60 min after mixing & induction.
The mark [8] stands for this setting: 75 min after mixing & induction.
Setting [9] is: 90 min after mixing & induction.
The mark [10] stands for this setting: 125 min after mixing & induction.
[11] abbreviates: 155 min after mixing & induction.
[12] abbreviates: 185 min after mixing & induction.

Structures are written as SMILES. “And” between values parts separate entries of the source, which are not always exact repeats. Equal entries are not always repeated.

Sequence of wild type nitroreductase (P38489 whole entry): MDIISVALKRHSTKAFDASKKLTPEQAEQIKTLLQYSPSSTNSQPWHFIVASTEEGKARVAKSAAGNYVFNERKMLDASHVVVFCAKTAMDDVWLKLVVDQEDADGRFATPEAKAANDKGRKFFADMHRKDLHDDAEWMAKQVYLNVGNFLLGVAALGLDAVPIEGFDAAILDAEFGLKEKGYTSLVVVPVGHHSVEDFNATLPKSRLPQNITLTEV

With `NC(=O)c1cc(N(CCCl)CCCl)c([N+](=O)[O-])cc1[N+](=O)[O-]` [SN 23862], the “activation by mammalian DT diaphorases” value in the assay on mammalian DT diaphorases is “not activated”.

Usually Km stands for the substrate concentration at which the rate is half of its maximum. Regarding `NC(=O)c1cc(N2CC2)c([N+](=O)[O-])cc1[N+](=O)[O-]` [CB1954, 5-[aziridin-1-yl]-2,4-dinitrobenzamide], at wild type nitroreductase, the turnover rate kcat was 6 s⁻¹. The Km at wild type nitroreductase (read-out: Michaelis constant KM) was 860 µM. Besides, the survival of mice entry in assay [1] is “Significantly increased survival and apparent cures”. For the same compound, the “sensitisation of tumour cell lines to the prodrug” value in assay [2] is recorded as “can sensitise”. Also, the “#### (Control phage in the section above)” value in assay [3] (15 min, no PCR typing) is on record as 0.6; in assay [3] (30 min, no PCR typing) it was 1; in assay [3] (45 min, no PCR typing), 2.2; in assay [3] (60 min) it was 3.82; in assay [3] (75 min) it was 4.79; in assay [3] (90 min), 9.6. For the same compound, the “#### (Control phage in the section above)” value in assay [3] (125 min) worked out at 33.4; in assay [3] (155 min) it was 54.7; in assay [3] (185 min) it was 72. Moreover, the No. cols in assay [3] (setting [4]) turned out to be 3; in assay [3] (setting [5]), 5; in assay [3] (setting [6]), 11; in assay [3] (setting [7]), 21; in assay [3] (setting [8]), 35; in assay [3] (setting [9]) it was 120. Also, the figures for the No. cols in assay [3] (setting [10]), in assay [3] (setting [11]) and in assay [3] (setting [12]) were 320, 360 and 360, respectively. Besides, the Phage particles in assay [3] (setting [4]) is recorded as 0.6 10^−6 per ml; in assay [3] (setting [5]), 1 10^−6 per ml; in assay [3] (setting [6]) it was 2.2 10^−6 per ml; in assay [3] (setting [7]), 4.2 10^−6 per ml; in assay [3] (setting [8]), 7 10^−6 per ml; in assay [3] (setting [9]) it was 24 10^−6 per ml. Also, the Phage particles was 64 10^−6 per ml in assay [3] (setting [10]), 72 10^−6 per ml in assay [3] (setting [11]) and 72 10^−6 per ml in assay [3] (setting [12]). Also, the “No. ntr phage (colonies containing λJG16C1 of colonies screened by PCR)” value is 1 of 11 in assay [3] (60 min); 6 of 19 in assay [3] (75 min); 18/30 and 18 of 30 in assay [3] (90 min); 11 of 23 in assay [3] (125 min); 6 of 25 in assay [3] (155 min); 0 of 10 in assay [3] (185 min). In assay [3] (90 minute time point, 60% versus 16% at mixing), the “enrichment of λJG16C1” value was ~ 4 fold. Besides, in assay [3] (culture exposed to CB1954, at 90 minutes, λJG16C1 16% of the mixture at mixing), the “proportion of λJG16C1 among recovered bacteriophage (peak)” value was 60%. Moreover, the “peak concentration of the λJG16C1” value in assay [3] (culture exposed to CB1954, at 125 minutes) is recorded as 3 x 10^7 per ml. Moreover, the “concentration of total bacteriophages released into the medium” value in assay [3] (culture exposed to CB1954, at 155 minutes) is 7.2 x 10^7 per ml; in assay [3] (culture exposed to CB1954, at early times), 6 x 10^5 per ml. In addition, the colony number in assay [3] (culture exposed to CB1954, end of the timecourse) is reported as ~ 360; in assay [3] (culture exposed to CB1954, start of the timecourse), 3. Besides, in assay [3] (first ~60 minutes of exposure to CB1954), the “level of bacteriophage above background” value is “no increase”.

(Values after US20020123037A1, “Selection Procedure Using Prodrug/Enzyme System” (Cobra Therapeutics Limited, priority 1999, published 2002).)
